Peptide text beside a SMILES is read from it. * marks the point of attachment. Cbz = O=C(OCc1ccccc1)*; Acryloyl = C=CC(=O)*; OtBu = CC(C)(C)O*
How the values were obtained:
[1] = target: T1, Coagulation factor XIII A chain (Homo sapiens, UniProt P00488); assay: Inhibition of coagulation factor 13a
T1 sequence (P00488 whole entry): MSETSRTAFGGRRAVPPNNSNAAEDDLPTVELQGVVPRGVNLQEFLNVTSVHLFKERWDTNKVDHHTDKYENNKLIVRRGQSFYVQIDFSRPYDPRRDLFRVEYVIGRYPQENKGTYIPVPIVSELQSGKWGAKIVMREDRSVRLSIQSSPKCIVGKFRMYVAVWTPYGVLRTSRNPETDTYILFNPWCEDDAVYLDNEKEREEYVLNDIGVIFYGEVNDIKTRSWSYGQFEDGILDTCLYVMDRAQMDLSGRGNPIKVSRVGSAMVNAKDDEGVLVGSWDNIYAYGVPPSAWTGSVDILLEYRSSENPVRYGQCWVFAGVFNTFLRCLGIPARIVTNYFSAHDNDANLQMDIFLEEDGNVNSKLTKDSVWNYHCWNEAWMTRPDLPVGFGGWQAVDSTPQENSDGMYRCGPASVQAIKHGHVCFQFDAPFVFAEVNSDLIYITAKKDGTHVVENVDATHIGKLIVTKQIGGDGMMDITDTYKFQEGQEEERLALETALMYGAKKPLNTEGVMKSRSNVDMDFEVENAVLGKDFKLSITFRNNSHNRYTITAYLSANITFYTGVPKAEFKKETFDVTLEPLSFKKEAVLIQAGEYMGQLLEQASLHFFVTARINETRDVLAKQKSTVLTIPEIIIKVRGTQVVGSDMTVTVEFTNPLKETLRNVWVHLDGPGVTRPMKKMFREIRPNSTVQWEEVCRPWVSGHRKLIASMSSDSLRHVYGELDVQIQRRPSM

[2] = target: T2, Protein-glutamine gamma-glutamyltransferase E (Homo sapiens, UniProt Q08188); assay: Inhibition of transglutaminase 3
T2 sequence (Q08188 whole entry): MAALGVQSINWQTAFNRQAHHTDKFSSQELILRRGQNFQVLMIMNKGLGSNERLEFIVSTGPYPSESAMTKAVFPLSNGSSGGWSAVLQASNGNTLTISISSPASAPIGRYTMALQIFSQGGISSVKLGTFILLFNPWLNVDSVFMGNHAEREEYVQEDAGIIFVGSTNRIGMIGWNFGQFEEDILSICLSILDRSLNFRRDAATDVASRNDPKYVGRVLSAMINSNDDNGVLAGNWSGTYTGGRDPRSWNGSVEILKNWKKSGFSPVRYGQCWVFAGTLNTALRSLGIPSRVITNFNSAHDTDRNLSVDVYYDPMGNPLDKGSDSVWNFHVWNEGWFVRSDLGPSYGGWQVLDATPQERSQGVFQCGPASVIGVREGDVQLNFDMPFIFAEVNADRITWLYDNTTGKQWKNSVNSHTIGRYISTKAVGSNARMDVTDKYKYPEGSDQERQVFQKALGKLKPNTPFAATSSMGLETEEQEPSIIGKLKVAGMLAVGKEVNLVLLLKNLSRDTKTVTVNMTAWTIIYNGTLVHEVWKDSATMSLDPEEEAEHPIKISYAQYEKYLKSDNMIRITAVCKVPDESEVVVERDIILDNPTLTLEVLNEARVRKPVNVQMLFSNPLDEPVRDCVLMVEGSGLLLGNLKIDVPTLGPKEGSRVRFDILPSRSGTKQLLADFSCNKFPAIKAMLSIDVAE

[3] = target: T3, Protein-glutamine gamma-glutamyltransferase K (Homo sapiens, UniProt P22735); assay: Inhibition of transglutaminase 1
T3 sequence (P22735 whole entry): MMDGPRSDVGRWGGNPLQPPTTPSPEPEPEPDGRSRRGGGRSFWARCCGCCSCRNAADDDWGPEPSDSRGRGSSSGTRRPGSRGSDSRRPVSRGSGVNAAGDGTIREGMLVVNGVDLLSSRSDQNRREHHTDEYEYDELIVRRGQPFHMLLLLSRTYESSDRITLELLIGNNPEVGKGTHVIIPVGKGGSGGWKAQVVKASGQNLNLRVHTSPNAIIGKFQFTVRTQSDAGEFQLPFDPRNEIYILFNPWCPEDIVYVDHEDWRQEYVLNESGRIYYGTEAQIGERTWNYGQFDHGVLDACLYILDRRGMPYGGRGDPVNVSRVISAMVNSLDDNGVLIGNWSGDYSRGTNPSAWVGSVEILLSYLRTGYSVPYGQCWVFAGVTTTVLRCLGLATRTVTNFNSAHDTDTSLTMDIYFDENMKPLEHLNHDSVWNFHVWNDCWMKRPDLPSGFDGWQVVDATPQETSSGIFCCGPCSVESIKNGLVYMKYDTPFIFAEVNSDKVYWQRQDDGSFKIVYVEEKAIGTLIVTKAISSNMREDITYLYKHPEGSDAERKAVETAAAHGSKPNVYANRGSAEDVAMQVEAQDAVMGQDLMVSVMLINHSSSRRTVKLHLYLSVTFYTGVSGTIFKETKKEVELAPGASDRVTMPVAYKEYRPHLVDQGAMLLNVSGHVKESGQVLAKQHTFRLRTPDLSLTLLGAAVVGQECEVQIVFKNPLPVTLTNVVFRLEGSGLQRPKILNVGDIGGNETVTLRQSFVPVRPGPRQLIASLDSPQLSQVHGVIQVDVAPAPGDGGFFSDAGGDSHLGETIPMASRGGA

[4] = target: T4, Protein-glutamine gamma-glutamyltransferase (Homo sapiens, UniProt P21980); assay: Irreversible inhibition of transglutaminase 2
T4 sequence (P21980 whole entry): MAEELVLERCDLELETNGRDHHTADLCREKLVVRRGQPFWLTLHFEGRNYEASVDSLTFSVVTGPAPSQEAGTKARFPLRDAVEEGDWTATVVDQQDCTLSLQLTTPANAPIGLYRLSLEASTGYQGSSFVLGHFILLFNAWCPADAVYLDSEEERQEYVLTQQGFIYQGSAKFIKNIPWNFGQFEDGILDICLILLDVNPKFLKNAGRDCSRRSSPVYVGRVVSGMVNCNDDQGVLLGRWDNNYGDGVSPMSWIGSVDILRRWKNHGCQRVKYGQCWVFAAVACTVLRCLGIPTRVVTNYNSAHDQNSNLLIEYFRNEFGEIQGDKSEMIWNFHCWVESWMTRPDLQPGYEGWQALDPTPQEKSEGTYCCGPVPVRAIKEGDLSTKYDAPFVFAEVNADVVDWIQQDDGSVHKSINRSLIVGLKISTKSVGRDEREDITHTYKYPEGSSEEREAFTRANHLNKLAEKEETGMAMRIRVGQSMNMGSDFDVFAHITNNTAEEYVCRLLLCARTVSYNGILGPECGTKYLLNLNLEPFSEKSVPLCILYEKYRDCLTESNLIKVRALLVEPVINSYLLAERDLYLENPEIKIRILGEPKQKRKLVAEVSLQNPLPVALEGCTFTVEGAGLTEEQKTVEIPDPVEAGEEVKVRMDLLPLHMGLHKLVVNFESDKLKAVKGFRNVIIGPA

IC50 [1] [µM] | IC50 [2] [µM] | IC50 [3] [µM] | IC50 [4] [µM] | Compound
35 | > 80 | 15 | 0.014 | C=CC(=O)NCCCC[C@H](NC(=O)Cc1ccccc1)C(=O)N1CCN(c2cccc(C)n2)CC1
> 80 | > 80 | > 80 | 3.1 | C=CC(=O)NCCCC[C@H](NC(=O)OCc1ccccc1)C(=O)NCC(=O)OC(C)(C)C (Cbz-Lys(Acryloyl)-Gly-OtBu)
67 | > 80 | 12.9 | 0.062 | C=CC(=O)NCCCC[C@H](NC(=O)OCc1ccccc1)C(=O)N1CCN(c2ccccc2Cl)CC1

— ChEMBL document CHEMBL2203174, “SAR Development of Lysine-Based Irreversible Inhibitors of Transglutaminase 2 for Huntington's Disease” (ACS Med Chem Lett, 2012)
